# Measurements from US20250032557A1, “Novel Strain Having Antagonism Against Proteus Mirabilis and Excellent Effect on Neurodegenerative Disease, and use Thereof” (METACEN THERAPEUTICS CO., LTD, priority 2021, published 2025).
# Assay: Protective ability against MPP^+ induced apoptosis of neurons (WST-1 cell viability)
# Format: cell-based
# Settings: human, MPP^+ 1 mM alone, read-out: Cell viability % compared to control
# Experimental: The following experiment was performed to evaluate the protective ability against apoptosis of neurons caused by MPP^+, a Parkinson's disease-inducing toxicity, in differentiated SH-Sy5y cells (brain neurons) for the Weissella cibaria strains shown in Table 2 above.
# Thereafter, the existing medium was removed and replaced with 0.5% fetal bovine serum DMEM medium to which a sample was added at various concentrations. After 4 hours, the cells were treated with MPP^+ neurotoxicity at a concentration of 1 mM and cultured for an additional 44 hours. Thereafter, the medium was treated with the WST-1 solution and cultured for 2 hours to induce a reduction reaction, and then the absorbance was measured at 450 nm using an ELISA microplate reader.
structure (smiles),measurement,value
"C[n+]1ccc(-c2ccccc2)cc1 [MPP^+, 1-methyl-4-phenylpyridinium iodide]","viability at 44 h, 1 mM",53%
